{"source": "patent US6893829B2", "about": "“Human leukocyte 12-lipoxygenase and its role in the pathogenesis of disease states” (City of Hope, priority 1992, dated 2005)", "key": {"[1]": {"tested_on": "leukocyte 12-LO mRNA in HSMC", "assay": "12-LO mRNA expression in HSMC (RT-PCR)", "type": "cell-based, human", "conditions": "AII 10^−7 mol/L", "from_the_text": "FIGS. 5A and 5B illustrate the regulation of leukocyte 12-LO mRNA levels by AII in HSMC using RT-PCR. FIG. 5A is the autoradiogram of the blot hybridized with 12-LO oligonucleotide probe. FIG. 5B is etidium bromide stained agarose gel. […] RNA samples were amplified for 40 cycles with leukocyte 12-LO primers or GAPDH primers.\nTotal RNA from cultured HSMC, HAEC and fresh MO was extracted with guanidiumthiocyanate-phenol-chloroform using RNAzol (Cinna/Biotecx Laboratories International Inc., Texas). Some RNA samples were treated by RNAse-free DNAse. 3 microgram of total RNA was mixed with the PCR buffer (10 mmol/L Tris-HCl, pH 8.3, 50 mmol/L KCl, 1.5 mmol/L MgCl2, and 0.001% gelatin), 200 μmol/L of each of the four deoxynucleotide triphosphates, 25 pmol each of 5′- and 3′-primers, 2 U Avian Myeloblastosis Virus reverse transcriptase (20 U/μl; Life Sciences, St. Petersburg, Fla.), and 2.5 U Taq polymerase (Perkin Elmer Cetus, Norwalk, Conn.) in a final vol of 50 μl. In some reactions, 5 pmol of each 5′- and 3′-primer of β2 macroglobulin or GAPDH were added as an internal standard. The samples were placed in a thermal cycler at 37° C. for eight minutes for the RT reaction to proceed. Then conditions used for PCR were a denaturation step at 94° C. for one-minute, annealing at 50° C. for two minutes, and extension at 72° C. for two minutes for 20-40 cycles. Blank reactions with no RNA template were carried out through the RT and PCR steps. […]\n20 μl aliquots of the PCR products were subjected to electrophoresis in a 1.8% agarose gel in Tris acetate-EDTA buffer. […] Blots were quantitated using a computerized video densitometer.\nIn order to evaluate the specific expression and regulation of 12-LO mRNA in HSMC, applicants used a RT-PCR assay that exclusively amplifies the leucocyte type of 12-LO. […] When PCR conditions were used that were specific for either the platelet type 12-LO or human 15-LO no specific RNA band was detected (data not shown). […]"}, "12-LO activity in HSMC": {"tested_on": "12-LO activity in HSMC", "assay": "12-HETE release and cell-associated 12-HETE in HSMC (HPLC/RIA)", "type": "cell-based, human", "method": "FIG. 3A illustrates the effect of AII on 12-HETE release by HSMC. HSMC were grown to confluency. Serum was removed and cells were incubated in media 199 containing 0.4% fetal bovine serum (FBS) and 0.2% BSA for 18 hours. Cells were then washed with DME media and incubated for 20 minutes in DME media containing 0.2% BSA. AII was added to the cells for five and ten minutes at the concentrations of 10^−9 and 10^−8 mol/L. Media were collected for HETE assay. • *p<0.05 vs control n=4\nFIG. 3B illustrates the effect of AII on cell-associated 12-HETE levels in HSMC. After collecting supernatants, cells were washed with ice-cold PBS and harvested by scraping for the assay of cell-associated HETEs. • *p<0.02 vs control n=4\nHSMC and HAEC monolayers were washed twice with ice-cold PBS and then processed for RNA extraction or western analysis as described below. For hydroxyeicosatetraenoic acid (HETE) assay, approximately 24 hours prior to an experiment, the medium was replaced with medium 199 containing 0.4% FBS and 0.2% BSA.\nThese assays were performed using previously published methods (10,11). Briefly, 12- and 15-HETE are extracted from supernatants and cells on C18 mini columns (Analytichem International, CA) and measured using our validated reverse phase gradient HPLC and (RIA) methods.\nAnother major aspect of this invention is the discovery that AII increases the activity and expression of 12-LO mRNA and protein in HSMC."}}, "data": [{"substance": "Angiotensin II (DRVYIHPF; Angiotensin-2; UniProt P01019 25-32, looked up) [AII, peptide hormone, added to cells as stimulus]", "values": [{"measurement": "incubation time at which 12-LO mRNA induction starts", "setting": "[1]", "result": 12, "unit": "h"}, {"measurement": "incubation time of maximum 12-LO mRNA induction", "setting": "[1]", "result": 36, "unit": "h"}, {"measurement": "leukocyte type 12-LO mRNA expression", "setting": "[1]; serum deprived HSMC", "result": "markedly upregulated"}, {"measurement": "release of 12-HETE", "setting": "12-LO activity in HSMC; AII 10^−8M, 5 minute incubation, serum free media, control 599±105", "result": "1467±277 pg per mg of protein"}, {"measurement": "release of 12-HETE", "setting": "12-LO activity in HSMC; AII 10^−8 mol/L, ten minute incubation", "result": "significantly simulated the release of 12-HETE"}, {"measurement": "release of 12-HETE", "setting": "12-LO activity in HSMC; AII 10^−9 mol/L, 5 minute incubation, serum free media, control 599±105", "result": "1296±262 pg per mg of protein"}, {"measurement": "cell-associated 12-HETE levels", "setting": "12-LO activity in HSMC; HSMC, FIG. 3B", "result": "significantly also increased"}]}]}
